Residue numbers refer to the chain shown, from its start. Where two headings read alike, the source gives them in different places.
Assays:
MOLM14(D835Y) cells = format: cell-based; details: for Excess HSA Score: 10 × 10
THP1 cells = experiment: Combination drug screening, Cell Titer Glo, 10 × 10 matrix, THP1 cells; format: cell-based
FLT3 ITD, F691L = target: T1, FLT3 ITD, F691L (Homo sapiens, UniProt P36888, F691L, form not given); experiment: DiscoverX KINOMEscan competition binding, FLT3 ITD, F691L; details: read-out: FLT3 ITD, F691L Kd
T1 sequence (P36888 1-993 F691L): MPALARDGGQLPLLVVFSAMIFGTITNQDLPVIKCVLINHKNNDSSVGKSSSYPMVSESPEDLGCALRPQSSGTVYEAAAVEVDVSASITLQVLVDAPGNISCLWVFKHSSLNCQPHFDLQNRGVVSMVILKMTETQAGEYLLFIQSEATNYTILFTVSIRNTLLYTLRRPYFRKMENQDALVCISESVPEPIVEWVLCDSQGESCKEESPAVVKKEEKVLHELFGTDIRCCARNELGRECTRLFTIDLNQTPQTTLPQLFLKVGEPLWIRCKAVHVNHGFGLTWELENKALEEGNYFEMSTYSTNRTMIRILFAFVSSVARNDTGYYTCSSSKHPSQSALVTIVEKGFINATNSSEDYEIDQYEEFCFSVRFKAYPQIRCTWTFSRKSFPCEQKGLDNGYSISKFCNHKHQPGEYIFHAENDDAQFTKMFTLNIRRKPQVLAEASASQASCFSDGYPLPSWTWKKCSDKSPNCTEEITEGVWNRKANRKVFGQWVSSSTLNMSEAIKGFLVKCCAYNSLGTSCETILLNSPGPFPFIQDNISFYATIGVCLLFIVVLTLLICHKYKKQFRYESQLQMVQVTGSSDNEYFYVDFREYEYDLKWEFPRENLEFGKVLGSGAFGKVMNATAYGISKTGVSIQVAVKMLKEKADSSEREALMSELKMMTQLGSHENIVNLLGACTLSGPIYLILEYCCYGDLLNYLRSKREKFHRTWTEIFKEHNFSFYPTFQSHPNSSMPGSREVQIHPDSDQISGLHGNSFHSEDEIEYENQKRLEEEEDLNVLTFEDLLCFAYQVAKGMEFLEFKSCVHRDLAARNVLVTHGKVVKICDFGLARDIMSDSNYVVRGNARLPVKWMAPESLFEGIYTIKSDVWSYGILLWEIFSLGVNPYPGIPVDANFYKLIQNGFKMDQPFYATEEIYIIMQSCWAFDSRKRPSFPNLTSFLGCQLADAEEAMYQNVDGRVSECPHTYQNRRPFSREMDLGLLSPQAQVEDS

FLT3 ITD, D835V = target: T2, FLT3 ITD, D835V (Homo sapiens, UniProt P36888, D835V, form not given); experiment: DiscoverX KINOMEscan competition binding, FLT3 ITD, D835V; details: read-out: FLT3 ITD, D835V Kd
T2 sequence (P36888 1-993 D835V): T1 sequence (P36888 1-993 F691L) with L691F, D835V

[1] = MOLM14(D835Y) cells, combination with Eprenetapopt/APR-246
[2] = MOLM14(D835Y) cells, combination with Venetoclax (ABT-199)
[3] = starting conc. 200 nM, with (+)-BAY-1251152 starting conc. 1000 nM
[4] = starting conc. 200 nM, with Azacitidine (5-Azacytidine) starting conc. 20000 nM
[5] = starting conc. 200 nM, with Palbociclib starting conc. 10000 nM
[6] = starting conc. 200 nM, with Prednisolone starting conc. 10000 nM
[7] = starting conc. 200 nM, with TNO-155 starting conc. 10000 nM
[8] = starting conc. 200 nM, with Venetoclax (ABT-199) starting conc. 2000 nM
[9] = starting conc. 200 nM, with Venetoclax (ABT-199) starting conc. 20000 nM
[10] = starting conc. 20000 nM, with (+)-BAY-1251152 starting conc. 1000 nM
[11] = starting conc. 20000 nM, with Azacitidine (5-Azacytidine) starting conc. 20000 nM
[12] = starting conc. 20000 nM, with Palbociclib starting conc. 10000 nM
[13] = starting conc. 20000 nM, with Prednisolone starting conc. 10000 nM
[14] = starting conc. 20000 nM, with TNO-155 starting conc. 10000 nM
[15] = starting conc. 20000 nM, with Venetoclax (ABT-199) starting conc. 2000 nM
[16] = starting conc. 20000 nM, with Venetoclax (ABT-199) starting conc. 20000 nM

COc1cc2ncc(-c3cncc(N[C@H]4CNCC[C@@H]4F)n3)n2nc1C1CC1 [Compound 24, 6-(6-cyclopropyl-7-methoxyimidazo[1,2-b]pyridazin-3-yl)-N-((3S,4S)-4-fluoropiperidin-3-yl)pyrazin-2-amine]
Excess HSA Score (MOLM14(D835Y) cells; MOLM14(D835Y) cells, combination with (+)-BAY-1251152): −245.2 | Excess HSA Score (MOLM14(D835Y) cells; MOLM14(D835Y) cells, combination with AMG-232): 468.3 | Excess HSA Score (MOLM14(D835Y) cells; MOLM14(D835Y) cells, combination with AZD-5363): −1011 | Excess HSA Score (MOLM14(D835Y) cells; [1]): 143 | Excess HSA Score (MOLM14(D835Y) cells; MOLM14(D835Y) cells, combination with Ivosidenib): 282.2936 | Excess HSA Score (MOLM14(D835Y) cells; MOLM14(D835Y) cells, combination with Lenalidomide): 491.2 | Excess HSA Score (MOLM14(D835Y) cells; MOLM14(D835Y) cells, combination with Palbociclib): −732.6 | Excess HSA Score (MOLM14(D835Y) cells; MOLM14(D835Y) cells, combination with Prednisolone): 169.8 | Excess HSA Score (MOLM14(D835Y) cells; MOLM14(D835Y) cells, combination with SNDX-5613): −279.3 | Excess HSA Score (MOLM14(D835Y) cells; MOLM14(D835Y) cells, combination with TNO-155): −1249 | Excess HSA Score (MOLM14(D835Y) cells; MOLM14(D835Y) cells, combination with Trametinib): −336.8 | Excess HSA Score (MOLM14(D835Y) cells; MOLM14(D835Y) cells, combination with Ulixertinib): −260.4 | Excess HSA Score (MOLM14(D835Y) cells; [2]): −1890 | Comments (MOLM14(D835Y) cells; [1]): Antagonistic | Comments (MOLM14(D835Y) cells; [2]): Synergistic | Excess HSA Score (MOLM14(D835Y) cells; MOLM14(D835Y), title compound starting conc. 200 nM + (+)-BAY-1251152 starting conc. 1000 nM): −369.2 | Excess HSA Score (MOLM14(D835Y) cells; MOLM14(D835Y), title compound starting conc. 200 nM + Azacitidine (5-Azacytidine) starting conc. 20000 nM): −594 | Excess HSA Score (MOLM14(D835Y) cells; MOLM14(D835Y), title compound starting conc. 200 nM + Palbociclib starting conc. 10000 nM): −490.9 | Excess HSA Score (MOLM14(D835Y) cells; MOLM14(D835Y), title compound starting conc. 200 nM + Prednisolone starting conc. 10000 nM): 12.1697 | Excess HSA Score (MOLM14(D835Y) cells; MOLM14(D835Y), title compound starting conc. 200 nM + TNO-155 starting conc. 10000 nM): −944.7 | Excess HSA Score (MOLM14(D835Y) cells; MOLM14(D835Y), title compound starting conc. 200 nM + Venetoclax (ABT-199) starting conc. 2000 nM): −764.8 | Excess HSA Score (MOLM14(D835Y) cells; MOLM14(D835Y), title compound starting conc. 200 nM + Venetoclax (ABT-199) starting conc. 20000 nM): −71.65 | Excess HSA Score (MOLM14(D835Y) cells; MOLM14(D835Y), title compound starting conc. 20000 nM + (+)-BAY-1251152 starting conc. 1000 nM): −47.77 | Excess HSA Score (MOLM14(D835Y) cells; MOLM14(D835Y), title compound starting conc. 20000 nM + Azacitidine (5-Azacytidine) starting conc. 20000 nM): −49.15 | Excess HSA Score (MOLM14(D835Y) cells; MOLM14(D835Y), title compound starting conc. 20000 nM + Palbociclib starting conc. 10000 nM): 182.1 | Excess HSA Score (MOLM14(D835Y) cells; MOLM14(D835Y), title compound starting conc. 20000 nM + Prednisolone starting conc. 10000 nM): 153.7 | Excess HSA Score (MOLM14(D835Y) cells; MOLM14(D835Y), title compound starting conc. 20000 nM + TNO-155 starting conc. 10000 nM): −94.76 | Excess HSA Score (MOLM14(D835Y) cells; MOLM14(D835Y), title compound starting conc. 20000 nM + Venetoclax (ABT-199) starting conc. 2000 nM): −501.6 | Excess HSA Score (MOLM14(D835Y) cells; MOLM14(D835Y), title compound starting conc. 20000 nM + Venetoclax (ABT-199) starting conc. 20000 nM): −122.6 | Excess HSA Score (THP1 cells; THP1 cells, 10 × 10, combination with (+)-BAY-1251152): −308.4 | Excess HSA Score (THP1 cells; THP1 cells, 10 × 10, combination with AMG-232): 144.3 | Excess HSA Score (THP1 cells; THP1 cells, 10 × 10, combination with AZD-5363): −379.5012 | Excess HSA Score (THP1 cells; THP1 cells, 10 × 10, combination with Eprenetapopt/APR-246): −87.03 | Excess HSA Score (THP1 cells; THP1 cells, 10 × 10, combination with Ivosidenib): 107 | Excess HSA Score (THP1 cells; THP1 cells, 10 × 10, combination with Lenalidomide): −94.52 | Excess HSA Score (THP1 cells; THP1 cells, 10 × 10, combination with Palbociclib): −359.2 | Excess HSA Score (THP1 cells; THP1 cells, 10 × 10, combination with Prednisolone): 35 | Excess HSA Score (THP1 cells; THP1 cells, 10 × 10, combination with SNDX-5613): 504 | Excess HSA Score (THP1 cells; THP1 cells, 10 × 10, combination with TNO-155): −66.32 | Excess HSA Score (THP1 cells; THP1 cells, 10 × 10, combination with Trametinib): −416.7 | Excess HSA Score (THP1 cells; THP1 cells, 10 × 10, combination with Ulixertinib): −298.8 | Excess HSA Score (THP1 cells; THP1 cells, 10 × 10, combination with Venetoclax (ABT-199)): −2203 | Comments (THP1 cells; THP1 cells, combination with Prednisolone): Antagonistic | Comments (THP1 cells; THP1 cells, combination with Venetoclax (ABT-199)): Synergistic | Comments (THP1 cells; [3]): Synergistic at both | Excess HSA Score (THP1 cells; [3]): −571 | Comments (THP1 cells; [4]): Synergism is more | Excess HSA Score (THP1 cells; [4]): −34.1 | Comments (THP1 cells; [5]): Synergistic at both | Excess HSA Score (THP1 cells; [5]): −217.9 | Comments (THP1 cells; [6]): Antagonistic at both | Excess HSA Score (THP1 cells; [6]): 212.2 | Comments (THP1 cells; [7]): Synergistic | Excess HSA Score (THP1 cells; [7]): −37.04 | Comments (THP1 cells; [8]): Synergistic; Optimal | Excess HSA Score (THP1 cells; [8]): −888.9 | Comments (THP1 cells; [9]): Synergistic; Optimal | Excess HSA Score (THP1 cells; [9]): −1905 | Comments (THP1 cells; [10]): Synergistic at both | Excess HSA Score (THP1 cells; [10]): −641.3 | Comments (THP1 cells; [11]): Synergism is more | Excess HSA Score (THP1 cells; [11]): −703.5 | Comments (THP1 cells; [12]): Synergistic at both | Excess HSA Score (THP1 cells; [12]): −318.6 | Comments (THP1 cells; [13]): Antagonistic at both | Excess HSA Score (THP1 cells; [13]): 291 | Comments (THP1 cells; [14]): Antagonistic over | Excess HSA Score (THP1 cells; [14]): 308.6 | Comments (THP1 cells; [15]): Synergistic; Optimal | Excess HSA Score (THP1 cells; [15]): −108.3 | Comments (THP1 cells; [16]): Synergistic; Optimal | Excess HSA Score (THP1 cells; [16]): −1677 | Kd (FLT3 ITD, F691L): 0.048 nM | Kd (FLT3 ITD, D835V): 0.045 nM

Reference: patent US20250154144A1 (CHILDREN'S HOSPITAL MEDICAL CENTER, priority 2021, published 2025)
